Values joined by “and” are separate entries in the source; they are usually repeats but may differ in a detail not shown here. Identical values can stand only once.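 How tested: cells in 96-well plates exposed to compound for 48 hours at five concentrations. Abbreviation: GI50, concentration required for 50% inhibition of growth.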 Active and inactive are the calls of the source. Rule as the data show it: active = GI50 up to about 1.1 µM and inactive = higher.
Legend:
Experiment in all cases: NCI tumour cell line growth inhibition, 48 h
[1] = tested on: 786-0
[2] = tested on: A498
[3] = tested on: A549
[4] = tested on: ACHN
[5] = tested on: CAKI-1
[6] = tested on: CCRF-CEM
[7] = tested on: COLO 205
[8] = tested on: DLD-1
[9] = tested on: DMS-114
[10] = tested on: DMS-273
[11] = tested on: EKVX
[12] = tested on: HCC 2998
[13] = tested on: HCT-116
[14] = tested on: HCT-15
[15] = tested on: HL-60
[16] = tested on: HOP-18
[17] = tested on: HOP-62
[18] = tested on: HOP-92
[19] = tested on: HT-29
[20] = tested on: IGROV-1
[21] = tested on: K562
[22] = tested on: KM-20L2
[23] = tested on: KM12
[24] = tested on: LOX IMVI
[25] = tested on: LXFL 529
[26] = tested on: M14
[27] = tested on: M19-MEL
[28] = tested on: MOLT-4
[29] = tested on: Malme-3M
[30] = tested on: NCI-H226
[31] = tested on: NCI-H23
[32] = tested on: NCI-H460
[33] = tested on: NCI-H522
[34] = tested on: OVCAR-3
[35] = tested on: OVCAR-4
[36] = tested on: OVCAR-5
[37] = tested on: OVCAR-8
[38] = tested on: RPMI-8226
[39] = tested on: RXF 393
[40] = tested on: RXF 631
[41] = tested on: SF-268
[42] = tested on: SF-295
[43] = tested on: SF-539
[44] = tested on: SK-MEL-28
[45] = tested on: SK-MEL-2
[46] = tested on: SK-MEL-5
[47] = tested on: SK-OV-3
[48] = tested on: SN12C
[49] = tested on: SNB-19
[50] = tested on: SNB-75
[51] = tested on: SNB-78
[52] = tested on: SR
[53] = tested on: SW-620
[54] = tested on: TK-10
[55] = tested on: U-251
[56] = tested on: UACC-257
[57] = tested on: UACC-62
[58] = tested on: UO-31
[59] = tested on: XF498
[60] = tested on: BT-549
[61] = tested on: DU-145
[62] = tested on: MCF7
[63] = tested on: MDA-MB-231
[64] = tested on: MDA-N
[65] = tested on: NCI/ADR-RES
[66] = tested on: T47D

Measured: GI50

O=C(CN1CCN(c2ccccc2)CC1)N1CCc2c([nH]c3ccccc23)C1c1cccnc1 (stereo not drawn)
57.3 µM: [14]
inactive: [1] 15.3 µM | [2] > 100 µM | [3] 31.6 µM | [4] 51.8 µM | [5] 25.3 µM | [6] > 100 µM | [7] > 100 µM | [8] > 53 µM | [9] 26.9 µM | [10] 49 µM | [11] > 100 µM | [12] > 87.9 µM | [13] 14.5 µM | [15] 30.9 µM | [16] > 100 µM | [17] 34.1 µM | [18] 20.2 µM | [19] > 53.5 µM | [20] > 100 µM | [21] > 76.4 µM | [22] > 100 µM | [23] 97.3 µM | [24] > 73.1 µM | [25] 71.9 µM | [26] 54.2 µM | [27] > 95.9 µM | [28] > 100 µM | [29] > 100 µM | [30] > 100 µM | [31] 30.5 µM | [32] 36.9 µM | [33] 29.3 µM | [34] 64.9 µM | [35] > 29.4 µM | [36] > 100 µM | [37] 24.4 µM | [38] > 100 µM | [39] 9.68 µM | [40] 33.3 µM | [41] 39.1 µM | [42] 23.7 µM | [43] 16.7 µM | [44] > 95.3 µM | [45] > 100 µM | [46] 51.3 µM | [47] 25.8 µM | [48] > 82.6 µM | [49] 38.2 µM | [50] 6.92 µM | [51] 13.5 µM | [52] > 100 µM | [53] > 66.8 µM | [54] > 29.4 µM | [55] 14.3 µM | [56] > 100 µM | [57] 88.7 µM | [58] > 58.3 µM | [59] 24.1 µM

CCCCCCCCCCSS(=O)(=O)c1ccc(C)cc1
13 µM: [14]
inactive: [1] 6.1 µM | [2] 18.5 µM | [3] 14.9 µM | [4] 16.9 µM | [5] 15.9 µM | [6] 2.24 µM | [7] 14.1 µM | [8] 12.5 µM | [9] 8.69 µM | [10] 9.27 µM | [11] 12.4 µM | [12] 17.5 µM | [13] 12.5 µM | [15] 2.43 µM | [16] 17.9 µM | [17] 19.9 µM | [18] 12.9 µM | [19] 9.08 µM | [20] 15.1 µM | [21] 12.1 µM | [22] 16.6 µM | [23] 9.64 µM | [24] 4.45 µM | [25] 13.6 µM | [26] 10.4 µM | [27] 11.2 µM | [28] 2.03 µM | [29] 15.6 µM | [30] 19 µM | [31] 17.3 µM | [32] 8.13 µM | [33] 6.4 µM | [34] 18.6 µM | [35] 15.6 µM | [36] 15.9 µM | [37] 14.1 µM | [38] 3.41 µM | [39] 15.8 µM | [40] 7.28 µM | [41] 6.12 µM | [42] 6.58 µM | [43] 1.87 µM | [44] 3.39 µM | [45] 5.01 µM | [46] 5.36 µM | [47] 22.3 µM | [48] 10.5 µM | [49] 10.5 µM | [50] 2.3 µM | [51] 10.9 µM | [52] 3.6 µM | [53] 14.3 µM | [54] 21 µM | [55] 4 µM | [56] 8.28 µM | [57] 6.82 µM | [58] 15 µM | [59] 13.3 µM

CN(C)C(=S)SSC(=S)N(C)C [THIRAM]
inactive: [2] 45.8 µM and > 60 µM | [60] 17.2 µM and 14.2 µM | [8] 2.59 µM | [61] 47.1 µM and 37.7 µM | [12] 16.7 µM and 29.3 µM | [16] > 100 µM | [17] > 67.9 µM | [22] 1.64 µM | [25] 1.98 µM | [26] 17.3 µM and 20.6 µM | [62] 20.8 µM and 17.7 µM | [63] 16.8 µM and 20.2 µM | [64] 19.1 µM and 14.1 µM | [29] 20.2 µM and 12.4 µM | [65] 17.2 µM | [40] 42.2 µM | [42] 21 µM and 28.6 µM | [44] 13 µM and 23.8 µM | [48] 36.4 µM and 24.3 µM | [49] > 57.8 µM and 54.6 µM | [50] 28.1 µM and 36 µM | [51] > 75.5 µM | [66] 26.2 µM and 18.3 µM | [55] 14.3 µM and 17.9 µM | [57] 3.52 µM and 2.3 µM | [58] > 46.5 µM and 31.9 µM | [59] 4.48 µM
active: [9] 0.124 µM | [10] 0.285 µM | [27] 0.581 µM

— ChEMBL document CHEMBL1201862, “PubChem BioAssay data set” (2004)
